Paper PMC6954722 (Stem Cells Translational Medicine, 2019)

Biological target: Smoothened (Mus musculus, UniProt P56726)
Experiment: displacement of BODIPY-cyclopamine
Assay type: cell-based

Smoothened, sequence (P56726 33-793): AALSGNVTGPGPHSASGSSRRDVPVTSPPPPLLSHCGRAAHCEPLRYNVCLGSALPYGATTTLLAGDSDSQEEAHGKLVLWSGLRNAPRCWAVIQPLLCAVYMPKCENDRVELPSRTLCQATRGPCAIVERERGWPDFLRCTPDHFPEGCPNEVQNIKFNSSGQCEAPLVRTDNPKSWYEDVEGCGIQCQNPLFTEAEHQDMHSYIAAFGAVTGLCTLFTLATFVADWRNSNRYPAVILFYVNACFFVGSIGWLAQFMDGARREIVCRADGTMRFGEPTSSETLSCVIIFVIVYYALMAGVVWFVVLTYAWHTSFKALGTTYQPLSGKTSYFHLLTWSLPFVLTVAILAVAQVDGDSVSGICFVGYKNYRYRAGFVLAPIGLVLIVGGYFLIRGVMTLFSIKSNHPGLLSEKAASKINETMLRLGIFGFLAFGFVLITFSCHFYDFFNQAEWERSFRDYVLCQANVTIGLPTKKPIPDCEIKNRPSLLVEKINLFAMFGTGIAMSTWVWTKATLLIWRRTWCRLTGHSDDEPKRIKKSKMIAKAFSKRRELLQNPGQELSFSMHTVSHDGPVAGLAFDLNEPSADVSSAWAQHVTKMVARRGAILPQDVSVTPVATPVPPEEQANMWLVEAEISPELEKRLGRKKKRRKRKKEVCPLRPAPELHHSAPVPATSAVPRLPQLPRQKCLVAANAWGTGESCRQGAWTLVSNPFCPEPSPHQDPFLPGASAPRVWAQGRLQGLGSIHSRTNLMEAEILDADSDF

- IC50: 88 ± 3.7 µM
SMILES: O=[N+]([O-])c1ccc(S(=O)(=O)N2CCN(c3ccccc3)CC2)cc1 [compound #5, 1‐[(4‐nitrophenyl)sulfonyl]‐4‐phenylpiperazine]
